Laboratory results as given in publication PMC10394814, “Discovery and evaluation of active compounds from Xuanfei Baidu formula against COVID-19 via SARS-CoV-2 M^pro” (Chinese Medicine, 2023).
Like-named read-outs stand apart in the source and are kept apart here.

What was measured:
SARS-CoV-2 M^pro [1] = biological target: T1, SARS-CoV-2 M^pro (Severe acute respiratory syndrome coronavirus 2, UniProt P0DTD1); assay: FRET screening of SARS-CoV-2 M^pro inhibitors; assay type: biochemical; details: for inhibition at 40 µM: read-out: inhibition rate; for IC50: n = 5
Protocol: FRET screening was carried out for identifying the inhibitors of SARS-CoV-2 M^pro. […] The screening system was established by employing M^pro (200 nM), substrate (20 µM), and the tested compounds with the different concentrations from 0.039 to 160 µM. The excitation and emission wavelength were set at 320 and 405 nm, separately. The data was analyzed with Graphpad prism 9.0 and all experiments were performed in triplicates.

SARS-CoV-2 M^pro [2] = biological target: T1, SARS-CoV-2 M^pro; assay: SPR binding affinity to M^pro (Biacore T200, CM5 chip); details: for kon / koff: kinetic mode; for kon: read-out: Ka (association rate constant); for koff: read-out: Kd (dissociation rate constant)
Protocol: SPR assay. Biacore T200 system was used for SPR assay. M^pro was conjugated to a sensor Chip (CM5) via amino coupling reaction. The tested compounds were diluted with the running buffer (1.05 × PBS-P, 5% DMSO) to reach the working concentration of 0.977–500 µM, being injected into the channels at a flow rate of 30 µL/min. The coupling time and the dissociation time were respectively set at 60 s and 120 s or 180 s. The data were analyzed for fitting the equilibrium dissociation constant (KD).

SARS-CoV-2 M^pro [3] = biological target: T1, SARS-CoV-2 M^pro; assay: ITC measurement of binding to M^pro; details: ITC at 298 K
in vitro = assay type: cell-based; details: African green monkey
Protocol: Vero E6 (ATCC, CRL-1586) cells (1 × 10^4 cells/well) were maintained in a 96-well plate for 12 h. All cells were cultured in complete medium composed of Dulbecco’s Modified Eagle Medium (DMEM) (Gibco, USA), 10% (v/v) serum, 100 U/mL penicillin, and 100 µg/mL streptomycin. The diluted solutions of the tested compounds (200 µL) at the concentrations of 100, 80, 60, 40, 20, 10, and 5 µM were added to wells and incubated for another 24 or 48 h, respectively. At the terminus period of incubation, 50 µL MTT (2.5 mg/mL) was added to each well and continuously incubated at 37 ℃ for 4 h. After disposal of the liquid supernatant, 150 µL DMSO was added to each well, whose absorbance was detected at 490 nm via Microplate Reader (TECAN SunriseTM, China). Cytotoxicity was calculated as follows: Cell viability (%) = (ODexperiment-ODBlank)/(ODcontrol-ODBlank) × 100%. The data were analyzed with GraphPad Prism 9.0. All experiments were performed in triplicates.

mice = details: cited from earlier work
[4] = kinetic mode (physcion: affinity mode)

Compound | inhibition at 40 µM (SARS-CoV-2 M^pro [1]) [%] | IC50 (SARS-CoV-2 M^pro [1]; with 0.01% Triton X-100) [µM] | IC50 (SARS-CoV-2 M^pro [1]; without Triton X-100) [µM] | Kd (SARS-CoV-2 M^pro [2]; [4]) [µM] | kon (SARS-CoV-2 M^pro [2]) [M⁻¹ s⁻¹] | koff (SARS-CoV-2 M^pro [2]) [s⁻¹] | N (binding stoichiometry) (SARS-CoV-2 M^pro [3]) | ΔS (entropy variation) (SARS-CoV-2 M^pro [3]) [cal/mol/deg] | CC50 (in vitro) [µM] | safe dose (mice) | Kd (SARS-CoV-2 M^pro [2]) [µM]
C[C@@H]1O[C@@H](O[C@@H]2[C@@H](O)[C@H](OCCc3ccc(O)c(O)c3)O[C@H](CO)[C@H]2OC(=O)/C=C/c2ccc(O)c(O)c2)[C@H](O)[C@H](O)[C@H]1O [Acteoside] | > 90 | 1.93 ± 0.76 | 2.53 ± 1.02 | 4.67 | 847 | 0.00396 | 0.48 | 27.3 | > 100 | up to 800 mg/kg | –
COc1c(/C=C/C(=O)c2ccc(O)cc2)ccc(O)c1O [Licochalcone B] | > 90 | 5.12 ± 1.53 | 4.24 ± 1.03 | 5.64 | 2210 | 0.0125 | – | – | – | – | –
COc1c(/C=C/C(=O)c2ccc(O)c(CC=C(C)C)c2)ccc(O)c1O [Licochalcone D] | > 90 | 29.5 | 5.54 | 4.87 | 2810 | 0.0137 | – | – | – | – | –
CCCCC/C=C\C/C=C\CCCCCCCC(=O)O [Linoleic acid, Linoleic Acid] | > 90 | 43 ± 1.93 | – | – | – | – | – | – | – | – | 10.8
COc1cc(O)c2c(c1)C(=O)c1cc(C)cc(O)c1C2=O [Physcion] | > 90 | 31.6 ± 25.6 | 22.1 ± 3.01 | – | – | – | – | – | – | – | 167
